Data as given in article PMC7044277 (Nature Communications, 2020).
Several values for one entry are separate records, joined by “and”; a condition that tells them apart may be missing. Equal entries are not always repeated.

Experiments:
[1] = target: T1, DRD2 F1103.28C (Homo sapiens, UniProt P14416, F110C); assay type: binding; conditions: DRD2 F1103.28C vs wild-type
T1 construct: expressed in transfected cells; host or cells: HEK293T (ATCC CRL-11268)

[2] = target: T2, DRD2 F1103.28Y (Homo sapiens, UniProt P14416, F110Y); assay type: binding
T2 construct: expressed in transfected cells; host or cells: HEK293T (ATCC CRL-11268)

[3] = target: DRD3 wild-type (Homo sapiens, UniProt P35462); test: Radioligand competition binding, [3H]-N-methylspiperone; design: Fig_1a competition binding curve, source data: unit not given here; conditions: for Fig_1a competition binding curve, source data: Log [L-741626]
[4] = target: T3, DRD2 W100ECL1F (Homo sapiens, UniProt P14416, W100F); assay type: binding; conditions: DRD2 W100ECL1F vs wild-type
T3 construct: expressed in transfected cells; host or cells: HEK293T (ATCC CRL-11268)

[5] = target: T4, DRD4 (D4.4 variant) wild-type (Homo sapiens, UniProt P21917); test: Radioligand competition binding, [3H]-N-methylspiperone; conditions: for Fig_1a competition binding curve, source data: Log [L-741626]
T4 sequence (P21917 1-419): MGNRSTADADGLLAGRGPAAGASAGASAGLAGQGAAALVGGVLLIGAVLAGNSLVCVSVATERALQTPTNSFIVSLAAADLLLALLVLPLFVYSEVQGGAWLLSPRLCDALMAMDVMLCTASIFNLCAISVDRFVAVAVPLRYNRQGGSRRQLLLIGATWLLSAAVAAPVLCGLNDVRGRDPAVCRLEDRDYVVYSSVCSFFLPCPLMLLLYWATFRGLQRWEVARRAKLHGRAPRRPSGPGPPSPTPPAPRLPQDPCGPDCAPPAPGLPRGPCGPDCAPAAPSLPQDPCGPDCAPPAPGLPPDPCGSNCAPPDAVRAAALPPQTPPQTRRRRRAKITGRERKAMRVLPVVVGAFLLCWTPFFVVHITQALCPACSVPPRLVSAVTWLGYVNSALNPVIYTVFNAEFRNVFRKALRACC

[6] = target: T5, DRD2 F1103.28E (Homo sapiens, UniProt P14416, F110E); assay type: binding; conditions: DRD2 F1103.28E vs wild-type
T5 construct: expressed in transfected cells; host or cells: HEK293T (ATCC CRL-11268)

[7] = target: DRD3 F1063.28A (Homo sapiens, UniProt P35462, F106A); test: biochemical; assay type: binding
[8] = target: T6, DRD2 F1103.28L (Homo sapiens, UniProt P14416, F110L); assay type: binding
T6 construct: expressed in transfected cells; host or cells: HEK293T (ATCC CRL-11268)

[9] = target: T7, DRD2 L942.64A (Homo sapiens, UniProt P14416, L94A); assay type: binding; conditions: DRD2 L942.64A vs DRD2 wild-type
T7 construct: expressed in transfected cells; host or cells: HEK293T (ATCC CRL-11268)

[10] = target: DRD2 F1103.28A (Homo sapiens, UniProt P14416, F110A); assay type: binding; design: expressed in transfected cells; host or cells: HEK293T (ATCC CRL-11268)
[11] = target: DRD2 (D2 long receptor) wild-type (Homo sapiens, UniProt P14416); test: Radioligand competition binding, [3H]-N-methylspiperone, HEK293T membranes; design: Fig_1a competition binding curve, source data: unit not given here; conditions: Log [L-741626]
[12] = target: T8, DRD2 V1113.29A (Homo sapiens, UniProt P14416, V111A); assay type: binding; conditions: DRD2 V1113.29A vs wild-type
T8 construct: expressed in transfected cells; host or cells: HEK293T (ATCC CRL-11268)

[13] = target: T9, DRD2 Y4087.35A (Homo sapiens, UniProt P14416, Y408A); assay type: binding; conditions: DRD2 Y4087.35A vs wild-type
T9 construct: expressed in transfected cells; host or cells: HEK293T (ATCC CRL-11268)

[14] = target: T10, DRD2 F1103.28W (Homo sapiens, UniProt P14416, F110W); assay type: binding
T10 construct: expressed in transfected cells; host or cells: HEK293T (ATCC CRL-11268)

[15] = target: T11, DRD2 W100EL1A (Homo sapiens, UniProt P14416, W100A); assay type: binding; conditions: DRD2 W100EL1A vs wild-type
T11 construct: expressed in transfected cells; host or cells: HEK293T (ATCC CRL-11268)
T11 sequence (P14416 whole entry W100A): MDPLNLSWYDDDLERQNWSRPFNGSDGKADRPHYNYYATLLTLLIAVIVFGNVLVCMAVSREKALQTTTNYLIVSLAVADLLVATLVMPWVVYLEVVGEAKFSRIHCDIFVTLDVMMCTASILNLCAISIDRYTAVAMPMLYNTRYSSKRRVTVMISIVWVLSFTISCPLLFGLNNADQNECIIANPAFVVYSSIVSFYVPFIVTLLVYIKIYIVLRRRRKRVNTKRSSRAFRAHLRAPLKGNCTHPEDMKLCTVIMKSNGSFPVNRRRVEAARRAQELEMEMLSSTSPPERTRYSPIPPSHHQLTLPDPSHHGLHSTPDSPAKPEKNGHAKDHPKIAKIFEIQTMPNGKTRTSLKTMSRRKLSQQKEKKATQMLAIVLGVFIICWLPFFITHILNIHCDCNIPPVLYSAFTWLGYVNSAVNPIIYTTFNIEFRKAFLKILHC

Chain of DRD3 F1063.28A (P35462 whole entry F106A): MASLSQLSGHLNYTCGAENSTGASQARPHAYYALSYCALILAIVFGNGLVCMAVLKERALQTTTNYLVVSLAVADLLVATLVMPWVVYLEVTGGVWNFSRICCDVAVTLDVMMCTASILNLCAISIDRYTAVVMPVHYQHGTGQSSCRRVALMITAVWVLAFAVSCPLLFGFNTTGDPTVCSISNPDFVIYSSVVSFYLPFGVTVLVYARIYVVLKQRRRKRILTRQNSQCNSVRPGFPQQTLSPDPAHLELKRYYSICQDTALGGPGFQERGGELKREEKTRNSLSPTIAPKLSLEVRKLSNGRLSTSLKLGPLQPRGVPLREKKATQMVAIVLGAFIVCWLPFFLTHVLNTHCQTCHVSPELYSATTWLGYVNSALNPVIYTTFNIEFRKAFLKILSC
Chain of DRD3 wild-type (P35462 whole entry): as the sequence (P35462 whole entry F106A) above, with A106F counted along it
Chain of DRD2 (D2 long receptor) wild-type (P14416 whole entry): as the sequence (P14416 whole entry W100A) above, with A100W counted along it
Chain of DRD2 F1103.28A (P14416 whole entry F110A): as the sequence (P14416 whole entry W100A) above, with A100W, F110A counted along it
T2 sequence (P14416 whole entry F110Y): as the sequence (P14416 whole entry W100A) above, with A100W, F110Y counted along it
T10 sequence (P14416 whole entry F110W): as the sequence (P14416 whole entry W100A) above, with A100W, F110W counted along it
T6 sequence (P14416 whole entry F110L): as the sequence (P14416 whole entry W100A) above, with A100W, F110L counted along it
T1 sequence (P14416 whole entry F110C): as the sequence (P14416 whole entry W100A) above, with A100W, F110C counted along it
T5 sequence (P14416 whole entry F110E): as the sequence (P14416 whole entry W100A) above, with A100W, F110E counted along it
T9 sequence (P14416 whole entry Y408A): as the sequence (P14416 whole entry W100A) above, with A100W, Y408A counted along it
T8 sequence (P14416 whole entry V111A): as the sequence (P14416 whole entry W100A) above, with A100W, V111A counted along it
T7 sequence (P14416 whole entry L94A): as the sequence (P14416 whole entry W100A) above, with L94A, A100W counted along it
T3 sequence (P14416 whole entry W100F): as the sequence (P14416 whole entry W100A) above, with A100F counted along it

## OC1(c2ccc(Cl)cc2)CCN(Cc2c[nH]c3ccccc23)CC1 [L-741626]
[1]
  ΔpKi (mutant-WT): 0.61
[2]; DRD2 F1103.28Y vs wild-type
  ΔpKi (mutant-WT): -1.76
[2]; DRD2 Phe110^3.28Tyr vs wild-type DRD2
  binding reduced, mutant vs wild type: 57.54 fold
[3]
  Ki: 186 nM
[3]; M -6
  Fig_1a competition binding curve, source data: 32.8337 and 26.7408 and 38.6364 and 33.7041 and 31.0928
[3]; M -7
  Fig_1a competition binding curve, source data: 71.7118 and 82.4468 and 88.2495 and 78.675 and 74.323 and 84.4778
[3]; M -8.5
  Fig_1a competition binding curve, source data: 107.108 and 98.6944 and 100.725 and 87.3791 and 104.497 and 101.596
[3]; M -9
  Fig_1a competition binding curve, source data: 98.4043 and 97.5338 and 93.7621 and 84.7679 and 88.8298 and 89.7002
[3]; M -9.5
  Fig_1a competition binding curve, source data: 87.3791 and 78.3849 and 90.2805 and 81.5764 and 85.058 and 98.1141
[3]; M -10
  Fig_1a competition binding curve, source data: 76.9342 and 89.7002 and 81.8665 and 72.2921 and 84.1876 and 72.0019
[3]; M -11
  Fig_1a competition binding curve, source data: 74.6132 and 85.6383 and 84.7679 and 77.8046 and 89.7002 and 91.441
[3]; M -12
  Fig_1a competition binding curve, source data: 84.7679 and 85.9284 and 102.466 and 78.0948 and 88.2495
[3]; M -13
  Fig_1a competition binding curve, source data: 63.0077 and 75.4836 and 75.1934 and 78.675 and 77.5145 and 81.2863
[4]
  ΔpKi (mutant-WT): -0.85
[5]
  Ki: 170 nM
[5]; M -7
  Fig_1a competition binding curve, source data: 75.0526 and 67.9047 and 62.8591 and 59.9159 and 75.8935
[5]; M -8
  Fig_1a competition binding curve, source data: 91.8711 and 84.3027 and 93.5529 and 96.4962
[5]; M -8.5
  Fig_1a competition binding curve, source data: 103.224 and 99.4394 and 102.803 and 91.8711
[5]; M -9
  Fig_1a competition binding curve, source data: 79.2572 and 91.8711 and 89.7687 and 85.9846 and 96.9166 and 113.735
[5]; M -9.5
  Fig_1a competition binding curve, source data: 89.7687 and 87.246 and 104.905 and 87.6664 and 93.1325 and 88.9278
[5]; M -10
  Fig_1a competition binding curve, source data: 74.6321 and 83.0413 and 75.8935 and 70.4275 and 85.5641 and 84.3027
[5]; M -11
  Fig_1a competition binding curve, source data: 92.712 and 78.8367 and 85.1437 and 96.4962 and 77.9958 and 82.6209
[5]; M -12
  Fig_1a competition binding curve, source data: 77.1549 and 85.1437 and 89.7687 and 83.4618 and 81.3595
[5]; M -13
  Fig_1a competition binding curve, source data: 88.0869 and 85.5641 and 82.6209 and 79.6776 and 79.2572
[6]
  ΔpKi (mutant-WT): 0.03
[7]
  Ki: 5.37 nM
[7]; DRD3 F1063.28A vs DRD3 wild-type
  ΔpKi (mutant-WT): 1.54
[7]; DRD3 Phe106^3.28Ala vs wild-type DRD3
  binding affinity increased, mutant vs wild type: 34.67 fold
[8]; DRD2 F1103.28L vs wild-type
  ΔpKi (mutant-WT): 1.27
[8]; DRD2 Phe110^3.28Leu vs wild-type DRD2
  binding enhanced, mutant vs wild type: 18.65 fold
[9]
  ΔpKi (mutant-WT): -0.45
[10]; DRD2 F1103.28A vs wild-type
  ΔpKi (mutant-WT): 2.14
[10]; DRD2 Phe110^3.28Ala vs wild-type DRD2
  affinity increase (binding enhanced), mutant vs wild type: 144.18 fold
[11]; M -4, replicates
  Fig_1a competition binding curve, source data: -1.355 and 1.993 and -0.6377 and -1.594 and 3.428 and -1.8334
[11]; M -7
  Fig_1a competition binding curve, source data: 29.733 and 32.3635 and 33.0809 and 32.8418 and 34.0375 and 33.3201
[11]; M -8
  Fig_1a competition binding curve, source data: 78.2782 and 80.4304 and 73.2563 and 83.061 and 72.778 and 84.4958
[11]; M -8.5
  Fig_1a competition binding curve, source data: 93.8222 and 94.0614 and 107.453 and 92.6265 and 93.1048
[11]; M -9
  Fig_1a competition binding curve, source data: 100.279 and 96.4528 and 102.67 and 87.1264 and 100.04 and 104.584
[11]; M -9.5
  Fig_1a competition binding curve, source data: 97.4093 and 108.171 and 98.605 and 95.0179 and 103.388
[11]; M -10
  Fig_1a competition binding curve, source data: 91.5385 and 88.2344 and 89.4739
[11]; M -11
  Fig_1a competition binding curve, source data: 89.0395 and 93.1048 and 90.4743 and 90.2352 and 86.4089 and 84.7349
[11]; M -12
  Fig_1a competition binding curve, source data: 100.518 and 86.6481 and 95.4962 and 94.7788 and 98.1268 and 94.5397
[11]; M -13
  Fig_1a competition binding curve, source data: 93.8222 and 89.2786 and 87.6046 and 85.6915 and 92.3874 and 93.1048
[12]
  ΔpKi (mutant-WT): -0.26
[13]
  ΔpKi (mutant-WT): -0.10
[14]; DRD2 F1103.28W vs wild-type
  ΔpKi (mutant-WT): -0.93
[14]; DRD2 Phe110^3.28Trp vs wild-type DRD2
  binding reduced, mutant vs wild type: 8.51 fold
[15]
  ΔpKi (mutant-WT): -0.79
